The values below are quoted from earlier work in US11044905B2, “Tablet with an antimycotic agent, medical device and method for preserving harvested corneas” (ALCHILIFE S.R.L., priority 2018, dated 2021).

For the series the following is noted: organ culture preservation, 31° C.

Structures are written as SMILES.

Consider `C[C@@H]1[C@H](O)[C@@H](C)/C=C/C=C/C=C/C=C/C=C/C=C/C=C/[C@H](O[C@@H]2O[C@H](C)[C@@H](O)[C@H](N)[C@@H]2O)C[C@@H]2O[C@](O)(C[C@@H](O)C[C@@H](O)[C@H](O)CC[C@@H](O)C[C@@H](O)CC(=O)O[C@H]1C)C[C@H](O)[C@H]2C(=O)O` [Amphotericin B], for which the “period of effective protection under conditions of use” value is on record as no more than 14 days.
